# From PMC8585833, “Serum concentrations of antidepressants, antipsychotics, and antiepileptics over the bariatric surgery procedure” (European Journal of Clinical Pharmacology, 2021)
# Like-named read-outs stand apart in the source and are kept apart here.
# Legend:
# [1] = Dose-adjusted steady-state trough serum concentrations before and after low-calorie diet and bariatric surgery; format: in vivo, human; settings: for Change in dose-adjusted concentration over the pre-surgery low-calorie diet: after the pre-surgery diet, before surgery, median weight reduction 6 kg; for Reduction of dose-adjusted concentration on the last day of sampling: post-surgery versus pre-surgery, substances with samples from six or more participants
# Source text: We designed the study as a naturalistic longitudinal, prospective case series with intra-individual comparisons of drug concentrations over time, before and up to 1 year after the surgical procedure.
# The participants contributed blood samples to the current study during routine pre-surgery visits before, and post-surgery visits about 8 weeks, 6 months, and 1 year after, the surgery. Pre-surgery sampling generally occurred twice: at an initial preoperative assessment visit, and just before surgery. Between these visits, that is, before surgery, patients were required to adhere to a low-calorie diet and show a weight reduction. The samples were stored as serum in −80 °C at a biobank, and analysed after all samples had been collected.
# Before every routine visit at which the sampling was to occur, we contacted the participants by telephone to systematically obtain information on the current dose as well as adherence to the drug treatment in question over the 2 preceding weeks. Samples were excluded from the data set if non-adherence less than four elimination half-lives prior to sampling was reported; exceptions were made for occasional missed doses of fluoxetine. Half-lives applied were those described for a drug or its metabolite in the summary of product characteristics. We also asked for and recorded concomitant drug treatment, weight, and smoking status. To be able to relate potential changes in concentration to health consequences, we asked the participants during the follow-up phone calls, using an open question, if anything had happened to their health since the last visit. To obtain trough blood concentrations, we strived to schedule the routine visits before lunchtime and the participants were instructed not to take morning tablets before the sampling.
# Specific substances were analysed concomitantly, using clinical routine methods, at accredited laboratories at the Department of Clinical Chemistry, Sahlgrenska University Hospital, Gothenburg, Sweden, or (as for gabapentin, hydroxybupropion, mianserine, pregabalin, paroxetine and topiramate) at the Department of Clinical Pharmacology, St. Olav’s Hospital, Trondheim, Norway. Analysis methods were based on liquid chromatography/tandem mass spectrometry or (for lamotrigine and valproic acid) enzyme immunoassay.
# Statistical analyses were performed using SPSS, version 23.0 (IBM SPSS Statistics for Windows, Armonk, NY, USA). Participants treated with the same substance before and after surgery, with one or more trough sample concentrations available, were included in the analysis. To allow interindividual and intraindividual comparisons, serum concentrations were adjusted for defined daily dose (DDD). For example, since DDD for citalopram is 20 mg, a DDD-adjusted citalopram concentration of 100 nmol/L could represent a measured concentration of 50, 100, or 200 nmol/L, given a daily dose of 10, 20, or 40 mg, respectively. To compare pre- to post-surgery concentrations, as well as pre- to post-diet concentrations, we used Wilcoxon signed rank test for substances with samples available for six or more individuals. We used Spearman’s correlation to explore the relationship between the ratio of the post-/pre-diet concentrations and (i) the distribution coefficient for the drug in question, i.e., the logarithm of the ratio of its concentration in a lipophilic and a hydrophilic solution (logD), as well as (ii) the weight loss in kilograms for pregabalin.
# [2] = historical data or matched non-surgery subjects as controls; cited from earlier work
# [3] = selection limit for extremely hydrophilic or extremely lipophilic substances in literature search; source not stated; cited from earlier work
# [4] = Table 2A, trough serum, adjusted for dose in DDDs
# [5] = Table 2B, trough serum, adjusted for dose in DDDs, after pre-surgery low-calorie diet
# [6] = Table 2B, trough serum, adjusted for dose in DDDs, before low-calorie diet
smiles,measurement,setting,value
CC1(C)O[C@@H]2[C@@H](CO[C@@]3(COS(N)(=O)=O)OC(C)(C)O[C@@H]23)O1 [Topiramate],"Dose-adjusted drug concentration Median (IQR), Pre-diet/pre-surgery","[1]; Table 2A, antiepileptics, trough serum, adjusted for dose in DDDs",33 (N/A) µmol/L
same,"Dose-adjusted drug concentration Median (IQR), Post-surgery","[1]; Table 2A, antiepileptics, trough serum, adjusted for dose in DDDs, last observation carried forward, median 379 days after surgery",37 (N/A) µmol/L
same,"Dose-adjusted drug concentration Median (IQR), post-diet","[1]; Table 2B, antiepileptics, trough serum, adjusted for dose in DDDs, after pre-surgery low-calorie diet",31 (N/A) µmol/L
same,"Dose-adjusted drug concentration Median (IQR), pre-diet","[1]; Table 2B, antiepileptics, trough serum, adjusted for dose in DDDs, before low-calorie diet",39 (N/A) µmol/L
CN[C@H]1CC[C@@H](c2ccc(Cl)c(Cl)c2)c2ccccc21 [Sertraline],"Concentration, Post-surgery","[1]; Case 3, GBP, day +68, drug dose 200 mg",66 nM
same,"Concentration, Post-surgery","[1]; Case 3, GBP, day +368, drug dose 200 mg",78 nM
same,"Concentration, Baseline","[1]; Case 3, GBP, drug dose 200 mg",130 nM
same,Change in dose-adjusted concentration over the pre-surgery low-calorie diet,[1],decreased
same,"Dose-adjusted drug concentration Median (IQR), Pre-diet/pre-surgery","[1]; human, in vivo",51 (27–84) nmol/L
same,"Dose-adjusted drug concentration Median (IQR), post-diet","[1]; human, in vivo",39 (23–53) nmol/L
same,"Dose-adjusted drug concentration Median (IQR), pre-diet","[1]; human, in vivo",66 (43–87) nmol/L
same,"concentration at 379 days after surgery (median), trough","[1]; human, in vivo",25 nM
same,Reduction of dose-adjusted concentration on the last day of sampling,[1],51%
CNCCC(Oc1ccc(C(F)(F)F)cc1)c1ccccc1 (stereo not shown) [Fluoxetine],Course of dose-adjusted concentration after surgery,"[1]; after surgery, following the low-calorie diet",continued to increase also after surgery
same,"Dose-adjusted drug concentration Median (IQR), Pre-diet/pre-surgery","[1]; human, in vivo",221 (157–371) nmol/L
same,"Dose-adjusted drug concentration Median (IQR), post-diet","[1]; human, in vivo",263 (182–333) nmol/L
same,"Dose-adjusted drug concentration Median (IQR), pre-diet","[1]; human, in vivo",259 (147–379) nmol/L
same,"concentration at 379 days after surgery (median), trough","[1]; human, in vivo",294 nM
CC/C(=C(\c1ccccc1)c1ccc(OCCN(C)C)cc1)c1ccccc1 [tamoxifen],Concentration change after the bariatric surgery procedure,[2],appeared to decrease
Cc1cc2c(s1)Nc1ccccc1N=C2N1CCN(C)CC1 [Olanzapine],"Dose-adjusted drug concentration Median (IQR), Pre-diet/pre-surgery","[1]; human, in vivo",113 (N/A) nmol/L
CN1CCN2c3ncccc3Cc3ccccc3C2C1 (stereo not shown) [Mirtazapine],"Concentration, Post-surgery","[1]; Case 3, GBP, day +68, drug dose 15 mg",30 nM
same,"Concentration, Post-surgery","[1]; Case 3, GBP, day +368, drug dose 30 mg",203 nM
same,"Concentration, Baseline","[1]; Case 3, GBP, drug dose 15 mg",96 nM
same,"Concentration, Post-surgery","[1]; Case 4, Sleeve, day 213, drug dose 30 mg",87 nM
same,"Concentration, Post-surgery","[1]; Case 4, Sleeve, day 393, drug dose 45 mg",119 nM
same,"Concentration, Baseline","[1]; Case 4, Sleeve, drug dose 30 mg",140 nM
same,Change in dose-adjusted concentration over the pre-surgery low-calorie diet,[1],decreased
same,"Dose-adjusted drug concentration Median (IQR), Pre-diet/pre-surgery","[1]; human, in vivo",148 (131–170) nmol/L
same,"Dose-adjusted drug concentration Median (IQR), post-diet","[1]; human, in vivo",76 (50–102) nmol/L
same,"Dose-adjusted drug concentration Median (IQR), pre-diet","[1]; human, in vivo",138 (120–157) nmol/L
same,"concentration at 379 days after surgery (median), trough","[1]; human, in vivo",88 nM
same,Reduction of dose-adjusted concentration on the last day of sampling,[1],41%
Fc1ccc([C@@H]2CCNC[C@H]2COc2ccc3c(c2)OCO3)cc1 [Paroxetine],"Dose-adjusted drug concentration Median (IQR), Pre-diet/pre-surgery","[1]; human, in vivo",22 (N/A) nmol/L
same,"Dose-adjusted drug concentration Median (IQR), post-diet","[1]; human, in vivo",69 (N/A) nmol/L
same,"Dose-adjusted drug concentration Median (IQR), pre-diet","[1]; human, in vivo",22 (N/A) nmol/L
same,"Dose-adjusted drug concentration Median (IQR), Post-surgery","[1]; human, in vivo, 379 days after surgery (median), trough",167 (N/A) nmol/L
CO[C@H]1C[C@@H]2CC[C@@H](C)[C@@](O)(O2)C(=O)C(=O)N2CCCC[C@H]2C(=O)O[C@H]([C@H](C)C[C@@H]2CC[C@@H](O)[C@H](OC)C2)CC(=O)[C@H](C)/C=C(\C)[C@@H](O)[C@@H](OC)C(=O)[C@H](C)C[C@H](C)/C=C/C=C/C=C/1C [sirolimus],logD,[3],> 4
same,Concentration change after the bariatric surgery procedure,[2],appeared to decrease
COc1ccc(C(CN(C)C)C2(O)CCCCC2)cc1 (stereo not shown) [Venlafaxine],"Dose-adjusted drug concentration Median (IQR), Pre-diet/pre-surgery",[1]; [4],173 (88–443) nmol/L
same,"Dose-adjusted drug concentration Median (IQR), post-diet",[1]; [5],132 (87–215) nmol/L
same,"Dose-adjusted drug concentration Median (IQR), pre-diet",[1]; [6],172 (79–399) nmol/L
same,"concentration at 379 days after surgery (median), trough","[1]; human, oral, Table 2A, trough serum, adjusted for dose in DDDs, last observation carried forward, median 379 days after surgery, read-out: Dose-adjusted drug concentration Median (IQR), Post-surgery",168 nM
C[C@H]1NC(C)(C)CO[C@]1(O)c1cccc(Cl)c1 [Hydroxybupropion],"Dose-adjusted drug concentration Median (IQR), Pre-diet/pre-surgery",[1]; [4],"3,997 (N/A) nmol/L"
same,"Dose-adjusted drug concentration Median (IQR), Post-surgery","[1]; Table 2A, trough serum, adjusted for dose in DDDs, last observation carried forward, median 379 days after surgery","3,298 (N/A) nmol/L"
same,"Dose-adjusted drug concentration Median (IQR), post-diet",[1]; [5],"3,067 (N/A) nmol/L"
same,"Dose-adjusted drug concentration Median (IQR), pre-diet",[1]; [6],"2,732 (N/A) nmol/L"
